According to the NIST ThermoML archive (doi:10.1016/j.jct.2007.11.009):
± gives the expanded uncertainty stated by the source.

Assay: xn = mol fraction of the nth substance listed
Details: Liquid, Vibrating tube method, x2 = 0

c1ccccc1 [benzene] + CCCCCCCC
mass density [kg/m3]
Details | 298.15 K | 308.15 K | 318.15 K | 328.15 K
100 kPa | 873.5 ± 0.2 | 862.9 ± 0.2 | 852.3 ± 0.2 | 841.5 ± 0.2
2130 kPa | 875.1 ± 0.2 | 864.7 ± 0.2 | 854.2 ± 0.2 | 843.6 ± 0.2
4150 kPa | 876.7 ± 0.2 | 866.4 ± 0.2 | 856.1 ± 0.2 | 845.6 ± 0.2
6180 kPa | 878.4 ± 0.2 | 868.2 ± 0.2 | 857.9 ± 0.2 | 847.5 ± 0.2
8210 kPa | 879.9 ± 0.2 | 869.9 ± 0.2 | 859.7 ± 0.2 | 849.5 ± 0.3
10230 kPa | 881.5 ± 0.2 | 871.6 ± 0.3 | 861.5 ± 0.3 | 851.3 ± 0.3
11250 kPa | 882.3 ± 0.2 | 872.4 ± 0.3 | 862.4 ± 0.3 | 852.3 ± 0.3
12260 kPa | 883.1 ± 0.3 | 873.2 ± 0.3 | 863.2 ± 0.3 | 853.2 ± 0.3
14290 kPa | 884.6 ± 0.3 | 874.8 ± 0.3 | 865 ± 0.3 | 855 ± 0.3
16310 kPa | 886.1 ± 0.3 | 876.4 ± 0.3 | 866.6 ± 0.3 | 856.8 ± 0.3
18340 kPa | 887.6 ± 0.3 | 878 ± 0.3 | 868.3 ± 0.3 | 858.6 ± 0.3
20370 kPa | 889.1 ± 0.3 | 879.5 ± 0.3 | 869.9 ± 0.3 | 860.3 ± 0.3
22390 kPa | 890.5 ± 0.3 | 881.1 ± 0.3 | 871.6 ± 0.3 | 862 ± 0.3
24420 kPa | 892 ± 0.3 | 882.6 ± 0.3 | 873.2 ± 0.3 | 863.7 ± 0.3
26450 kPa | 893.4 ± 0.3 | 884 ± 0.3 | 874.7 ± 0.3 | 865.3 ± 0.3
28470 kPa | 894.7 ± 0.3 | 885.5 ± 0.3 | 876.2 ± 0.3 | 866.9 ± 0.3
29490 kPa | 895.4 ± 0.3 | 886.2 ± 0.3 | 877 ± 0.3 | 867.8 ± 0.3
30500 kPa | 896.1 ± 0.3 | 886.9 ± 0.3 | 877.8 ± 0.3 | 868.6 ± 0.3
32530 kPa | 897.5 ± 0.3 | 888.4 ± 0.3 | 879.2 ± 0.3 | 870.1 ± 0.3
34550 kPa | 898.8 ± 0.3 | 889.7 ± 0.3 | 880.7 ± 0.3 | 871.7 ± 0.3
36580 kPa | 900.1 ± 0.3 | 891.1 ± 0.3 | 882.1 ± 0.3 | 873.1 ± 0.3
38600 kPa | 901.4 ± 0.3 | 892.5 ± 0.3 | 883.6 ± 0.3 | 874.7 ± 0.3
39620 kPa | 902 ± 0.3 | 893.2 ± 0.3 | 884.3 ± 0.3 | 875.4 ± 0.3
